Results: patent publication US20070015723A1, “Antiviral oligonucleotides having a conserved G4 core sequence” (priority 1992, published 2007)

How the values were obtained:
[1] = system: Naja naja naja phospholipase A2
[2] = system: phospholipase A2 from Agkistrodon piscivorus piscivorus

ISIS 3196: GGG T GGG T ATA G AAG G GCT CC, P = S, SEQ ID NO 47 (GGGTGGGTATAGAAGGGCTCC; all phosphorothioate, sugars by position and methylation of C not given here)
IC50 [1]: > 10 µM | IC50 [2]: ~3000 nM
